Experimental data published in article PMC8048867 (Chemmedchem, 2020).
Several values for one entry are separate records, joined by “and”; a condition that tells them apart may be missing. Identical values can stand only once.

How the values were obtained:
[1] = target: T1, recombinant human meprin α (Homo sapiens, UniProt Q16819); experiment: meprin α inhibition, quenched fluorogenic peptide substrate assay; format: biochemical; conditions: for SF: selectivity factor (K i app meprin β/K i app meprin α): meprin α over meprin β
T1 sequence (Q16819 66-746): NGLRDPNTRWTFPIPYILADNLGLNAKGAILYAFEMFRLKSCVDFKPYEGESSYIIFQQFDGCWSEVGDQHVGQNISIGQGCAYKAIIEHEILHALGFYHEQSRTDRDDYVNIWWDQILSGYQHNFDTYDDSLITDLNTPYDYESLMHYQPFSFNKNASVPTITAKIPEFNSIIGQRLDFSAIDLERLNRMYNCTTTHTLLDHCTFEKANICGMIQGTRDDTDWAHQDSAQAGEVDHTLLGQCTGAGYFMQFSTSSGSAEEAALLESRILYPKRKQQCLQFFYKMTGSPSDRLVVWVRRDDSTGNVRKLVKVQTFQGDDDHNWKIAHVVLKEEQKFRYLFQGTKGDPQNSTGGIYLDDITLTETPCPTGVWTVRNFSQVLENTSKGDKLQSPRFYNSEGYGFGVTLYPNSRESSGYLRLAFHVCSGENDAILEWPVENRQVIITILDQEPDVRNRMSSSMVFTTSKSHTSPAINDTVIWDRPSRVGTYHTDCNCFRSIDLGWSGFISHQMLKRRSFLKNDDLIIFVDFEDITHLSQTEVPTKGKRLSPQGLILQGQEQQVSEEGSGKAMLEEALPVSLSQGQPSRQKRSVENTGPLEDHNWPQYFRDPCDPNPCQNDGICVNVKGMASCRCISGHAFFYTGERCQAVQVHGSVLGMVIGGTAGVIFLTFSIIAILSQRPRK

[2] = target: T2, recombinant human meprin β (Homo sapiens, UniProt Q16820); experiment: meprin β inhibition, quenched fluorogenic peptide substrate assay; format: biochemical
T2 sequence (Q16820 62-701): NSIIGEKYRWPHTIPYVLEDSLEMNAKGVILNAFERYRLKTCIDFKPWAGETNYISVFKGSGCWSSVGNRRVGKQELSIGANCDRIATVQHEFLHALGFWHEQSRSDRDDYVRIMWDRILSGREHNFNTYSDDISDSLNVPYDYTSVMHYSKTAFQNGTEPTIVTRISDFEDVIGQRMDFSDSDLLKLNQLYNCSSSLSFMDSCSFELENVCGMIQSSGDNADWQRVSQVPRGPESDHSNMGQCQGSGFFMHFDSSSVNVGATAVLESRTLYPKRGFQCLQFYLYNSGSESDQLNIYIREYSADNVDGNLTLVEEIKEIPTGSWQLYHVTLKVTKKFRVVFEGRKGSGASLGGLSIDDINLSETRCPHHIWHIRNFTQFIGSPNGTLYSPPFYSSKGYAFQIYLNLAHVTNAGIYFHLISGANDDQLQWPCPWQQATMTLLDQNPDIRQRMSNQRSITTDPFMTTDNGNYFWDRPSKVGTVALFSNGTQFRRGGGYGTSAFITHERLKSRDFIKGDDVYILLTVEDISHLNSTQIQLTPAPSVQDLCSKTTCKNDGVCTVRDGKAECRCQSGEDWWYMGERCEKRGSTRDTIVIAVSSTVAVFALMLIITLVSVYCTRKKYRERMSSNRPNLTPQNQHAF

MMP2 = target: T3, MMP2 (Homo sapiens, UniProt P08253); experiment: off-target proteinase inhibition MMP2; format: biochemical; conditions: read-out: Relative enzyme activity MMP2
T3 sequence (P08253 110-660): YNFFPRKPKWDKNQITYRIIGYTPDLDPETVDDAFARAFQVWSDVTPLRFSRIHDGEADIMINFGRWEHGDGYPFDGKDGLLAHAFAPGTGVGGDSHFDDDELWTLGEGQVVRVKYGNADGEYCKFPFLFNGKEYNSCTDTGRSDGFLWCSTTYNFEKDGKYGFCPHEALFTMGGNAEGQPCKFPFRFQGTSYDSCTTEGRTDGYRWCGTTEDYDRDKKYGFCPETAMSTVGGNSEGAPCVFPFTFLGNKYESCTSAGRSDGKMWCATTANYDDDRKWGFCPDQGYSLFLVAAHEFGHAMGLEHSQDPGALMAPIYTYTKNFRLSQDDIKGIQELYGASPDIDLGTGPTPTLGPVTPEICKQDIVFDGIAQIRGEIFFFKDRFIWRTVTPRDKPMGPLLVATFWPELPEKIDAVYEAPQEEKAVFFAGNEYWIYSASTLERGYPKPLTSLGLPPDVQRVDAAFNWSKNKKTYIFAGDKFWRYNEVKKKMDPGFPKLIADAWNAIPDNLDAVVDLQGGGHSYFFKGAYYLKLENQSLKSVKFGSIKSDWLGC

MMP9 = MMP9 (Homo sapiens, UniProt P14780); experiment: off-target proteinase inhibition MMP9; format: biochemical; conditions: read-out: Relative enzyme activity MMP9
Sequence of MMP9 (P14780 107-707 limits assumed): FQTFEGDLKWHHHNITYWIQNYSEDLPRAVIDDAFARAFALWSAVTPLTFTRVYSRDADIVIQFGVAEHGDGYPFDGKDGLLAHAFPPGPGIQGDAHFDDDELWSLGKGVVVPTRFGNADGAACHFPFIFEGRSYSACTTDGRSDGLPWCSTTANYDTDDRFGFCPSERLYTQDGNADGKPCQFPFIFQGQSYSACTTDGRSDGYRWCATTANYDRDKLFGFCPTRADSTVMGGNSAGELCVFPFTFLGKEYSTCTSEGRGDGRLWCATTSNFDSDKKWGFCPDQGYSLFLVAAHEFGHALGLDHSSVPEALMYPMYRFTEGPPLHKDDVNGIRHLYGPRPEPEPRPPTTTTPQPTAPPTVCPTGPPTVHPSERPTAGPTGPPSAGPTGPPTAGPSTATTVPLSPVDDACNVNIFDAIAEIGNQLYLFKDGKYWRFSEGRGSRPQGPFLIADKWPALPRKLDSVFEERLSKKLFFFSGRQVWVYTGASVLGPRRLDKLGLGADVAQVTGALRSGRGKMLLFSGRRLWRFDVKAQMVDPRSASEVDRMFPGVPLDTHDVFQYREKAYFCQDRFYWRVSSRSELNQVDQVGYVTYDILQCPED

MMP13 = MMP13 (Homo sapiens, UniProt P45452); experiment: off-target proteinase inhibition MMP13; format: biochemical; conditions: read-out: Relative enzyme activity MMP13
ADAM10 = target: T4, ADAM10 (Homo sapiens, UniProt O14672); experiment: off-target proteinase inhibition ADAM10; format: biochemical; conditions: read-out: Relative enzyme activity ADAM10
T4 sequence (O14672 214-748): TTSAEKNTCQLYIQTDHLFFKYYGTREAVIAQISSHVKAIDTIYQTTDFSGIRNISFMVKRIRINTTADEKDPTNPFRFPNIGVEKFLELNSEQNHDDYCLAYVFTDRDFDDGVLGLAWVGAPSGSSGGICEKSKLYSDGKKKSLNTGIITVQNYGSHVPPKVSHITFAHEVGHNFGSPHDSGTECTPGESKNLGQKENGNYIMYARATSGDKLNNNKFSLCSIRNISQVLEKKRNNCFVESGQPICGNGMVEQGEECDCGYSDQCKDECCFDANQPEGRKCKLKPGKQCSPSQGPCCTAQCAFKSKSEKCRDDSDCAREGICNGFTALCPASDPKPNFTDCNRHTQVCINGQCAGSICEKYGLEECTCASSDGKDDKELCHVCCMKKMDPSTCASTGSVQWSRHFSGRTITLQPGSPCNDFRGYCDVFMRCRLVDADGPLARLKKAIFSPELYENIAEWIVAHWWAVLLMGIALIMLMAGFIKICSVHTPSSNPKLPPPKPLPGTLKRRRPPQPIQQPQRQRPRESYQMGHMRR

ADAM17 = ADAM17 (Homo sapiens, UniProt P78536); experiment: off-target proteinase inhibition ADAM17; format: biochemical; conditions: read-out: Relative enzyme activity ADAM17
Sequence of ADAM17 (P78536 215-824): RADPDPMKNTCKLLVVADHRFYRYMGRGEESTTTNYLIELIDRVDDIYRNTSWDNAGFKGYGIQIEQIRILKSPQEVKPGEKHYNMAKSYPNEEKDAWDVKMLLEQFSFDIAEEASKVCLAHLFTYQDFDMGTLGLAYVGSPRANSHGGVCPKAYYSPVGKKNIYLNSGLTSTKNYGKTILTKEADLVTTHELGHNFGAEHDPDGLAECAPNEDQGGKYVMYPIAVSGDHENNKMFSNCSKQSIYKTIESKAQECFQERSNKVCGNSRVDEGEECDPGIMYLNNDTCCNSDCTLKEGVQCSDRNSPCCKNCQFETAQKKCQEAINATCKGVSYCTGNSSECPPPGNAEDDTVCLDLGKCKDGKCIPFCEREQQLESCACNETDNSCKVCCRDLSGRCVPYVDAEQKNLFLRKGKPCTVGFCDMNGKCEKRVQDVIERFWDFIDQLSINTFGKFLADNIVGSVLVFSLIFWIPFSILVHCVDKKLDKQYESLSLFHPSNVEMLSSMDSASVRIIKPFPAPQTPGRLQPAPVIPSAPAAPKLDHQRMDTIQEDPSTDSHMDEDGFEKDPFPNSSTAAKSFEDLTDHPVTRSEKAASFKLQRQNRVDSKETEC

cell-viability assay [3] = format: cell-based; conditions: human, Hep-G2 cells
cell-viability assay [4] = format: cell-based; conditions: human, SH-SY5Y cells
mouse ovastacin = target: T5, mouse ovastacin (Mus musculus, UniProt Q6HA09); experiment: ovastacin inhibition, fluorogenic enzyme activity assay
T5 sequence (Q6HA09 86-435 limits assumed): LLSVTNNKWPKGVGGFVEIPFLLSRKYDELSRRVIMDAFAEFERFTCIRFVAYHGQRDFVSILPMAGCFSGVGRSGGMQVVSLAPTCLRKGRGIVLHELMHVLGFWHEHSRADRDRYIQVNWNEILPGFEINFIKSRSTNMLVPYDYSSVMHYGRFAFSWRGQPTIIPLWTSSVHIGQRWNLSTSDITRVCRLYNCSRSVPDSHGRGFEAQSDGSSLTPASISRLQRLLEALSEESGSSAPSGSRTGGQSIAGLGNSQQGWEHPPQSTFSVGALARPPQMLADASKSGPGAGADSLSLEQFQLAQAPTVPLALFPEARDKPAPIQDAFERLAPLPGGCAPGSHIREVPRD

SMILES | SF: selectivity factor (K i app meprin β/K i app meprin α) [1] | Ki [2] | remaining activity at 10 µM (MMP2) | remaining activity at 200 µM (MMP2) | remaining activity at 10 µM (MMP9) | remaining activity at 200 µM (MMP9) | remaining activity at 10 µM (MMP13) | remaining activity at 200 µM (MMP13) | remaining activity at 10 µM (ADAM10) | remaining activity at 200 µM (ADAM10) | remaining activity at 10 µM (ADAM17) | remaining activity at 200 µM (ADAM17) | Ki (mouse ovastacin) | SF Meprin α: selectivity factor (K i app ovastacin/K i app meprin α) (mouse ovastacin) | SF Meprin β: selectivity factor (K i app ovastacin/K i app meprin β) (mouse ovastacin) | Ki [1] | viability at 24 h, 30 µM (cell-viability assay [3]) | viability at 24 h, 30 µM (cell-viability assay [4]) | also measured
O=C(Cc1c(-c2ccccc2)noc1-c1ccccc1)NO [2 c, 2‐(3,5‐Diphenylisoxazol‐4‐yl)ethanehydroxamic acid] | 200 and 203 | 813 nM | 87% | 34% | 86% | 16% | 80% | 31% | 80% | 22% | 62% | 9% | 66 nM | 17 | 0.1 | – | 85% | 96% | fold improvement in potency against meprin α compared to amine 1 d ([1]; compared to 1 d): 2000 fold; fold increase in activity against meprin α compared to 2 a ([1]; compared to pyrrole 2 a): 5 fold; fold increase in activity against meprin β compared to 2 a ([2]; compared to pyrrole 2 a): 5 fold
O=C(CCc1c(-c2ccccc2)noc1-c1ccccc1)NO [2 d, 3‐(3,5‐Diphenylisoxazol‐4‐yl)propanehydroxamic acid] | 435 | 13500 nM | 98% | 74% | 89% | 39% | 79% | 66% | 75% | 21% | 75% | 24% | – | – | – | 31 nM | 90% | 123% | –
O=C(CCc1c(-c2ccccc2)n[nH]c1-c1ccccc1)NO [2 f, 3‐(3,5‐Diphenyl‐1H‐pyrazol‐4‐yl)propanehydroxamic acid] | 106 | 8030 nM | 97% | 77% | 93% | 65% | 93% | 68% | 66% | 12% | 76% | 27% | 2420 nM | 32 | 0.3 | 76 nM | 93% | 93% | –
O=C(Cn1c(-c2ccccc2)nnc1-c1ccccc1)NO [2 g, 2‐(3,5‐Diphenyl‐1,2,4‐triazol‐4‐yl)ethanehydroxamic acid] | 132 | 8680 nM | 95% | 70% | 99% | 54% | 93% | 76% | 89% | 83% | 90% | 56% | 4880 nM | 74 | 0.6 | 66 nM | 94% | 99% | –

Now from value to molecule, other results behind:

SF: selectivity factor (K i app meprin β/K i app meprin α) [1] | Ki [2] | remaining activity at 10 µM (MMP2) | remaining activity at 200 µM (MMP2) | remaining activity at 10 µM (MMP9) | remaining activity at 200 µM (MMP9) | remaining activity at 10 µM (MMP13) | remaining activity at 200 µM (MMP13) | remaining activity at 10 µM (ADAM10) | remaining activity at 200 µM (ADAM10) | remaining activity at 10 µM (ADAM17) | remaining activity at 200 µM (ADAM17) | Ki (mouse ovastacin) | SF Meprin α: selectivity factor (K i app ovastacin/K i app meprin α) (mouse ovastacin) | SF Meprin β: selectivity factor (K i app ovastacin/K i app meprin β) (mouse ovastacin) | Ki [1] | SMILES | viability at 24 h, 30 µM (cell-viability assay [3]) | viability at 24 h, 30 µM (cell-viability assay [4]) | also measured
16 | 1080 nM | 85% | 41% | 90% | 53% | 77% | 54% | 89% | 68% | 88% | 56% | 93 nM | 1.3 | 0.1 | 69 nM | O=C(Cn1c(-c2ccccc2)cc2ccccc21)NO [4 a, 2‐(2‐Phenylindol‐1‐yl)ethanehydroxamic acid] | – | – | –
10 | 1620 nM | 89% | 46% | 96% | 68% | 102% | 72% | 87% | 76% | 92% | 56% | 2090 nM | 13 | 1.3 | 163 nM | O=C(Cn1c(-c2ccccc2)nc2ccccc21)NO [4 c, 2‐(2‐Phenylbenzimidazol‐1‐yl)ethanehydroxamic acid] | 85% | 94% | –
